Patent US6924307B2, “Aminobutyric acid derivatives and pharmaceutical composition containing the same as active ingredient” (Ono Pharmaceutical Co., Ltd., priority 1999, dated 2005)

What was measured:
Format in all cases: biochemical
gelatinase A = biological target: T1, gelatinase A (Homo sapiens, UniProt P08253); experiment: Inhibitory activity against gelatinase A (fluorogenic synthetic substrate); conditions: gelatinase A from progelatinase A purified from human normal skin dermal fibroblasts (HNDF), APMA-activated; 37° C.
T1 construct: endogenous in cells; host or cells: human normal skin dermal fibroblasts (HNDF)
T1 sequence (P08253 110-660): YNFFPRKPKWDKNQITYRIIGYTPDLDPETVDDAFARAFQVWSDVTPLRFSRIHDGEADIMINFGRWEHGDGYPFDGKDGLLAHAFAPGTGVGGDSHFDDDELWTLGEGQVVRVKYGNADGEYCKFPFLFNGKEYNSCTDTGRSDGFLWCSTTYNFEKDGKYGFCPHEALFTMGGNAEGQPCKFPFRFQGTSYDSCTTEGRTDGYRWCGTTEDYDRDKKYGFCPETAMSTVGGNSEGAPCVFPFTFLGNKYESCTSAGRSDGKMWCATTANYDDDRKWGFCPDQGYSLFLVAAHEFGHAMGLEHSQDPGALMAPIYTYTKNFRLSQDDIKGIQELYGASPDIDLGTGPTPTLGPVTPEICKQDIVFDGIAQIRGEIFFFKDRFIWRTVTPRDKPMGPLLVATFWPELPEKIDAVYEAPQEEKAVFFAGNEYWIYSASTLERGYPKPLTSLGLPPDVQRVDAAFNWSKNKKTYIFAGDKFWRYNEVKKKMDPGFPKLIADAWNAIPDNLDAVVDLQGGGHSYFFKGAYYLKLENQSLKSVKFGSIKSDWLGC
Protocol: (1) Inhibitory Activity Against Gelatinase A
The progelatinase A (5 μl; in assay buffer (40 μl)) was purified from human normal skin dermal fibroblasts (HNDF). It was activated by adding thereto 10 mM of p-aminophenylmercuric acetate (APMA) (5 μl) and preincubating for 1 hour at 37° C.
A mixture of the synthetic substrate (MOCAc-Pro-Leu-Gly-A2pr(Dnp)-Ala-Arg-NH2) (130 μl; a final concentration 13.5 μM) and a solution (20 μl) with or without various concentrations of the test compound was preincubated for 5 minutes at 37° C.
The solution of activated gelatinase A (50 μl/well) was mixed with the mixture and the mixture was incubated for 15 minutes at 37° C. The enzyme reaction was started. The enzyme activity was represented by increasing value of fluorescent intensity [Ex=325 nm (Ex)/393 nm (Em)] per 1 minute. Inhibitory activity was represented by inhibitory percentage (%) per enzyme activity without the test compound.

human stromelysin = biological target: T2, human stromelysin (Homo sapiens, UniProt P08254); experiment: Inhibitory activity against stromelysin (synthetic substrate NFF-3, fluorescence); conditions: APMA-activated, pH 7.5, 37° C.
T2 construct: purchased Yagai
Protocol: (3) Inhibitory Activity Against Stromelysin Method:
The mixture of human stromelysin (Yagai; 9 volume) and 10 mM p-aminophenylmercury acetate (1 volume) was activated for 20 hours at 37° C. A solution of the test compound in dimethylsulfoxide (10 μl) and 0.5 mM solution (10 μl) of 10 mM solution of the synthetic substrate NFF-3 (Mca-Arg-Pro-Lys-Pro-Val-Glu-Nva-Trp-Arg-Lys(DNP)-NH2., Nva: norvaline, Peptide Laboratory) in dimethylsulfoxide diluted by water were added to assay buffer (50 mM tris-HCl, 10 mM CaCl2, 0.05% Brij35, 0.02% NaN3 (pH 7.5)) (150 μl). Furthermore, assay buffer (30 μl) was added to the mixture. The mixture was incubated for 10 minutes at 37° C. The reaction was started by addition of a solution of the above activated stromelysin solution (50 μl). The enzyme activity was represented by increasing value of fluorescent intensity [Ex=325 nm (Ex)/393 nm (Em)] per 1 minute. Inhibitory activity was represented by inhibitory percentage (%) per enzyme activity without the test compound.

collagenase = biological target: T3, collagenase (Homo sapiens, UniProt P03956); experiment: Inhibitory activity against collagenase (thiopeptolide synthetic substrate, absorption at 324 nm); conditions: collagenase from procollagenase purified from human normal skin dermal fibroblasts (HNDF), trypsin-activated; 26° C.
T3 construct: endogenous in cells; host or cells: human normal skin dermal fibroblasts (HNDF)
T3 sequence (P03956 100-469): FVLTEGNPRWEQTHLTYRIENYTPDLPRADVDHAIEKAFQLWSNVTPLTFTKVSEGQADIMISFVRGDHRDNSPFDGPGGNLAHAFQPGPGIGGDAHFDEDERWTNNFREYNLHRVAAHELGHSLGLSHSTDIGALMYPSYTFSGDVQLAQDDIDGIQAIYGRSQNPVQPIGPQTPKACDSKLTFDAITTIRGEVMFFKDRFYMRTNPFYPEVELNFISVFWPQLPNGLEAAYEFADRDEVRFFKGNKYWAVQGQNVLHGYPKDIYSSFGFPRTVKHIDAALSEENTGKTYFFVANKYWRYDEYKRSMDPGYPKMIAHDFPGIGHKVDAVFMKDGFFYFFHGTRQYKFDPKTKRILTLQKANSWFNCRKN
Protocol: (2) Inhibitory Activity Against Collagenase Method:
The procollagenase (5 μl; in assay buffer (105 μl)) was purified from human normal skin dermal fibroblasts (HNDF). It was activated by adding thereto 1 mg/ml Trypsin (45 μl) and preincubating for 1 minute at 37° C. Trypsin was inactivated by addition of 5 mg/ml soybean trypsin inhibitor (SBTI; 50 μl).
A mixture of the synthetic substrate (Ac-Pro-Leu-Gly-[2-mercapto-4-methyl-pentanoyl]-Leu-Gly-OEt) (105 μl; a final concentration 1.33 mM) and a solution (20 μl) with or without various concentrations of the test compound was preincubated for 5 minutes at 26° C.
The solution of activated enzyme (75 μl /tube, 50 μl) was mixed with the mixture and the mixture was incubated for 10 minutes at 26° C.
Absorption at 324 nm was measured 40 points in the course of 10 minutes. Vmax value was determined as measured value in 30 points therein.

T2 sequence (P08254 100-477): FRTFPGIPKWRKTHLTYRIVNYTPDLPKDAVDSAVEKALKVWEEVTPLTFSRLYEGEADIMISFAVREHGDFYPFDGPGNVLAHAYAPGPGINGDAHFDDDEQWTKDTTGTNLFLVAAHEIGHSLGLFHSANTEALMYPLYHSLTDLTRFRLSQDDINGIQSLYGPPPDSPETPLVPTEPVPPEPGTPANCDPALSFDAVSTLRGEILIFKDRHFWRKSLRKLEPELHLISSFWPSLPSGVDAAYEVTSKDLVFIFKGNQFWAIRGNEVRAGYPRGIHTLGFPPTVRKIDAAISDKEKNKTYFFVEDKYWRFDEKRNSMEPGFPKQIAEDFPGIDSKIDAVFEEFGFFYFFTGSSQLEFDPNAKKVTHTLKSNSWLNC

IC50 (gelatinase A) | IC50 (human stromelysin) | IC50 (collagenase) | SMILES
1.7 nM | 29 nM | – | CCOCOC[C@H](C[C@H](COC)C(=O)NO)NC(=O)c1ccc(Oc2ccccc2)cc1 [8(6), N-hydroxy-5-ethoxymethoxy-2(R)-methoxymethyl-4(S)-[N-(4-phenoxyphenylcarbonyl)amino]pentanamide]
– | – | 7.6 nM | C#CC[C@@H](C[C@@H](CO)N(C)C(=O)c1ccc(Br)cc1)C(=O)NO [21(2), N-hydroxy-2(S)-(2-propynyl)-5-hydroxy-4(S)-[N-methyl-N-(4-bromophenylcarbonyl)amino]pentanamide]
– | – | 14 nM | CCOCOC[C@H](C[C@H](COC)C(=O)NO)NC(=O)c1ccc(C#N)cc1 [compound 8]
– | 40 nM | – | CCOCOC[C@H](C[C@H](COC)C(=O)NO)NC(=O)c1ccc(-c2ccco2)cc1 [8(7), N-hydroxy-5-ethoxymethoxy-2(R)-methoxymethyl-4(S)-[N-(4-(2-furyl)phenylcarbonyl)amino]pentanamide]
4.2 nM | – | – | CN(C(=O)c1ccc(Br)cc1)[C@H](CO)C[C@H](CCCc1ccccc1)C(=O)NO [16(2), N-hydroxy-2(S)-(3-phenylpropyl)-5-hydroxy-4(S)-[N-methyl-N-(4-bromophenylcarbonyl)amino]pentanamide]
– | – | 6.8 nM | C#CCOC[C@@H](C[C@@H](COCOCC)NC(=O)c1ccc(Cl)cc1)C(=O)NO [20(3), N-hydroxy-5-ethoxymethoxy-2(R)-(2-propynyloxymethyl)-4(S)-[N-(4-chlorophenylcarbonyl)amino]pentanamide]
